{
  "source": "patent EP0580641B1",
  "about": "“NEW THALIDOMIDE DERIVATIVES, METHOD OF MANUFACTURE AND USE THEREOF IN MEDICAMENTS” (Grünenthal GmbH, priority 1991, dated 1992)",
  "origin": "cited, not measured here",
  "details": "cited from Arch. Pharm. 321, 371 (1988)",
  "data": [
    {"smiles": "O=C1CCC(N2C(=O)c3ccccc3C2=O)C(=O)N1", "note": "(stereo not shown) [Thalidomid, 3-Phthalimido-piperidin-2,6-dion]", "values": [
      {"measurement": "Wasserlöslichkeit", "value": "0,012 mg/ml"}
    ]}
  ]
}
